Laboratory results taken from PubChem BioAssay AID258 (DTP/NCI, 2004).
“And” between values parts separate entries of the source, which are not always exact repeats. Equal values may be shown once. Inconclusive results and toxic doses are left out.

System: CD2F1 mice, L1210 leukemia sc, survival T/C
Assay: NCI In Vivo Anticancer Drug Screen. Data for tumor model L1210 Leukemia (subcutaneous) in CD2F1 (CDF1) mice
Conditions: endpoint: median survival time, higher = longer survival
How it was run: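 Transplantable tumor-bearing mice were treated with compound; survival or tumor size measured and expressed as treated-group value (T) divided by vehicle-treated control value (C).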

## CCOC1=C(N2CC2)C(=O)C(OCC)=C(N2CC2)C1=O
dose: 3.0 mg/kg/injection, schedule: Q01DX Z (sc), vehicle: carboxymethylcellulose (CMC)
  T/C: 113 % of control
dose: 5.0 mg/kg/injection, schedule: Q01DX Z (sc), vehicle: carboxymethylcellulose (CMC)
  T/C: 118 % of control
dose: 8.4 mg/kg/injection, schedule: Q01DX Z (sc), vehicle: carboxymethylcellulose (CMC)
  T/C: 113 % of control
dose: 14.0 mg/kg/injection, schedule: Q01DX Z (sc), vehicle: carboxymethylcellulose (CMC)
  T/C: 109 % of control
dose: 23.0 mg/kg/injection, schedule: Q01DX Z (sc), vehicle: carboxymethylcellulose (CMC)
  T/C: 100 % of control

## Nc1cc(C(=O)Nc2ccc(C3=NCCN3)cc2)ccc1C(=O)Nc1ccc(C2=NCCN2)cc1
dose: 3.0 mg/kg/injection, schedule: Q01DX Z (sc), vehicle: methylcellulose (MC)
  T/C: 111 % of control
dose: 3.0 mg/kg/injection, schedule: Q01DX Z (sc), vehicle: water
  T/C: 116 % of control
dose: 5.0 mg/kg/injection, schedule: Q01DX Z (sc), vehicle: methylcellulose (MC)
  T/C: 200 % of control
dose: 5.0 mg/kg/injection, schedule: Q01DX Z (sc), vehicle: water
  T/C: 266 % of control
dose: 8.4 mg/kg/injection, schedule: Q01DX Z (sc), vehicle: methylcellulose (MC)
  T/C: 255 % of control
dose: 8.4 mg/kg/injection, schedule: Q01DX Z (sc), vehicle: water
  T/C: 294 % of control
dose: 14.0 mg/kg/injection, schedule: Q01DX Z (sc), vehicle: methylcellulose (MC)
  T/C: 200 % of control
dose: 14.0 mg/kg/injection, schedule: Q01DX Z (sc), vehicle: water
  T/C: 266 % of control
dose: 23.0 mg/kg/injection, schedule: Q01DX Z (sc), vehicle: methylcellulose (MC)
  T/C: 161 % of control
dose: 23.0 mg/kg/injection, schedule: Q01DX Z (sc), vehicle: water
  T/C: 288 % of control
dose: 39.0 mg/kg/injection, schedule: Q01DX Z (sc), vehicle: methylcellulose (MC)
  T/C: 155 % of control
dose: 39.0 mg/kg/injection, schedule: Q01DX Z (sc), vehicle: water
  T/C: 211 % of control
dose: 65.0 mg/kg/injection, schedule: Q01DX Z (sc), vehicle: methylcellulose (MC)
  T/C: 155 % of control
dose: 65.0 mg/kg/injection, schedule: Q01DX Z (sc), vehicle: water
  T/C: 200 % of control

## Nc1nc2c(c(=O)[nH]1)NC(CCNc1ccc(C(=O)NC(CCC(=O)O)C(=O)O)cc1)CN2 (stereo not drawn)
dose: 25.0 mg/kg/injection, schedule: Q03HX Z (ip), vehicle: other
  T/C: 120 % of control
dose: 50.0 mg/kg/injection, schedule: Q03HX Z (ip), vehicle: other
  T/C: 120 % of control
dose: 100.0 mg/kg/injection, schedule: Q01DX Z (ip), vehicle: other
  T/C: 120 % of control
dose: 100.0 mg/kg/injection, schedule: Q04DX Z (ip), vehicle: other
  T/C: 100 % of control
dose: 200.0 mg/kg/injection, schedule: Q04DX Z (ip), vehicle: other
  T/C: 100 % of control
dose: 800.0 mg/kg/injection, schedule: Q01DX Z (ip), vehicle: other
  T/C: 100 % of control

## Oc1cc(CN(CCCl)CCCl)c(O)cc1CN(CCCl)CCCl
dose: 23.4 mg/kg/injection, schedule: Q01DX Z (sc), vehicle: methylcellulose (MC)
  T/C: 105 % of control
dose: 38.9 mg/kg/injection, schedule: Q01DX Z (sc), vehicle: methylcellulose (MC)
  T/C: 110 % of control
dose: 64.8 mg/kg/injection, schedule: Q01DX Z (sc), vehicle: methylcellulose (MC)
  T/C: 115 % of control
dose: 108.0 mg/kg/injection, schedule: Q01DX Z (sc), vehicle: methylcellulose (MC)
  T/C: 115 % of control
dose: 180.0 mg/kg/injection, schedule: Q01DX Z (sc), vehicle: methylcellulose (MC)
  T/C: 105 % of control

## O=c1[nH]c(=O)n(C2CC(O)C(CO)O2)cc1F (stereo not drawn)
dose: 5.0 mg/kg/injection, schedule: Q01DX009 (ip), vehicle: saline
  T/C: 107 % of control
dose: 5.0 mg/kg/injection, schedule: Q01DX009 (sc), vehicle: saline
  T/C: 104 % of control
dose: 10.0 mg/kg/injection, schedule: Q01DX009 (ip), vehicle: saline
  T/C: 108 % of control
dose: 10.0 mg/kg/injection, schedule: Q01DX009 (sc), vehicle: saline
  T/C: 109 % of control
dose: 15.6 mg/kg/injection, schedule: Q01DX006 (ip), vehicle: saline
  T/C: 112 % of control
dose: 15.6 mg/kg/injection, schedule: Q01DX009 (ip), vehicle: saline
  T/C: 118 % of control
dose: 20.0 mg/kg/injection, schedule: Q01DX009 (ip), vehicle: saline
  T/C: 119 % of control
dose: 20.0 mg/kg/injection, schedule: Q01DX009 (sc), vehicle: saline
  T/C: 106 % of control and 121 % of control
dose: 30.0 mg/kg/injection, schedule: Q01DX009 (sc), vehicle: saline
  T/C: 107 % of control
dose: 31.3 mg/kg/injection, schedule: Q01DX006 (ip), vehicle: saline
  T/C: 106 % of control
dose: 31.3 mg/kg/injection, schedule: Q01DX009 (ip), vehicle: saline
  T/C: 118 % of control
dose: 31.3 mg/kg/injection, schedule: Q02DX005 (ip), vehicle: saline
  T/C: 112 % of control
dose: 31.3 mg/kg/injection, schedule: Q04DX003 (ip), vehicle: saline
  T/C: 112 % of control
dose: 40.0 mg/kg/injection, schedule: Q01DX009 (ip), vehicle: saline
  T/C: 122 % of control
dose: 40.0 mg/kg/injection, schedule: Q01DX009 (sc), vehicle: saline
  T/C: 122 % of control
dose: 60.0 mg/kg/injection, schedule: Q01DX009 (ip), vehicle: saline
  T/C: 124 % of control
dose: 62.5 mg/kg/injection, schedule: Q01DX001 (ip), vehicle: saline
  T/C: 112 % of control
dose: 62.5 mg/kg/injection, schedule: Q04DX003 (ip), vehicle: saline
  T/C: 100 % of control
dose: 80.0 mg/kg/injection, schedule: Q01DX009 (ip), vehicle: saline
  T/C: 118 % of control
dose: 120.0 mg/kg/injection, schedule: Q01DX009 (ip), vehicle: saline
  T/C: 110 % of control
dose: 120.0 mg/kg/injection, schedule: Q01DX009 (sc), vehicle: saline
  T/C: 106 % of control
dose: 125.0 mg/kg/injection, schedule: Q01DX001 (ip), vehicle: saline
  T/C: 112 % of control
dose: 125.0 mg/kg/injection, schedule: Q01DX009 (ip), vehicle: saline
  T/C: 150 % of control
dose: 125.0 mg/kg/injection, schedule: Q02DX005 (ip), vehicle: saline
  T/C: 118 % of control
dose: 125.0 mg/kg/injection, schedule: Q04DX003 (ip), vehicle: saline
  T/C: 112 % of control
dose: 130.0 mg/kg/injection, schedule: Q01DX Z (sc), vehicle: saline
  T/C: 116 % of control
dose: 160.0 mg/kg/injection, schedule: Q01DX009 (ip), vehicle: saline
  T/C: 106 % of control and 123 % of control
dose: 160.0 mg/kg/injection, schedule: Q01DX009 (sc), vehicle: saline
  T/C: 112 % of control
dose: 216.0 mg/kg/injection, schedule: Q01DX Z (sc), vehicle: saline
  T/C: 116 % of control
dose: 240.0 mg/kg/injection, schedule: Q01DX009 (ip), vehicle: saline
  T/C: 96 % of control
dose: 250.0 mg/kg/injection, schedule: Q01DX006 (ip), vehicle: saline
  T/C: 162 % of control
dose: 250.0 mg/kg/injection, schedule: Q01DX009 (ip), vehicle: saline
  T/C: 162 % of control
dose: 250.0 mg/kg/injection, schedule: Q02DX005 (ip), vehicle: saline
  T/C: 150 % of control
dose: 360.0 mg/kg/injection, schedule: Q01DX Z (sc), vehicle: saline
  T/C: 116 % of control
dose: 500.0 mg/kg/injection, schedule: Q02DX005 (ip), vehicle: saline
  T/C: 156 % of control
dose: 500.0 mg/kg/injection, schedule: Q04DX003 (ip), vehicle: saline
  T/C: 150 % of control
dose: 600.0 mg/kg/injection, schedule: Q01DX Z (sc), vehicle: saline
  T/C: 108 % of control
dose: 1000.0 mg/kg/injection, schedule: Q01DX001 (ip), vehicle: saline
  T/C: 150 % of control

## NC(=O)c1ncn2c(=O)n(CCCl)nnc12
dose: 1.56 mg/kg/injection, schedule: Q01DX009 (ip), vehicle: suspension in saline
  T/C: 123 % of control
dose: 6.25 mg/kg/injection, schedule: Q01DX009 (ip), vehicle: suspension in saline
  T/C: 195 % of control
dose: 12.5 mg/kg/injection, schedule: Q01DX009 (ip), vehicle: suspension in saline
  T/C: 309 % of control
dose: 25.0 mg/kg/injection, schedule: Q01DX009 (ip), vehicle: suspension in saline
  T/C: 206 % of control
dose: 50.0 mg/kg/injection, schedule: Q01DX009 (ip), vehicle: suspension in saline
  T/C: 100 % of control

## COC1=C(N)C(=O)c2nc(-c3nc(C(=O)O)c(C)c(-c4ccc(OC)c(OC)c4O)c3N)ccc2C1=O
dose: 0.13 mg/kg/injection, schedule: Q01DX Z (sc), vehicle: water
  T/C: 110 % of control
dose: 0.22 mg/kg/injection, schedule: Q01DX Z (sc), vehicle: water
  T/C: 110 % of control
dose: 0.36 mg/kg/injection, schedule: Q01DX Z (sc), vehicle: water
  T/C: 110 % of control
dose: 0.6 mg/kg/injection, schedule: Q01DX Z (sc), vehicle: water
  T/C: 105 % of control
dose: 1.0 mg/kg/injection, schedule: Q01DX Z (sc), vehicle: water
  T/C: 110 % of control
